Measurements as given in US20200246317A1, “METHODS OF TREATING DIABETIC NEUROPATHY WITH A THIAZOLINE ANTI-HYPERALGESIC AGENT” (CERSCI THERAPEUTICS, INC., priority 2019, published 2020).
Where a name gives a salt, the structure may show the parent alone.

How the values were obtained:
[1] = molecular target: T1, OATP1B1 (Homo sapiens, UniProt Q9Y6L6); experiment: Inhibition of transporters, OATP1B1 (HEK293 cells); assay type: in vitro ADME
T1 construct: expressed in transfected cells; host or cells: HEK293 cells
T1 sequence (Q9Y6L6 1-691): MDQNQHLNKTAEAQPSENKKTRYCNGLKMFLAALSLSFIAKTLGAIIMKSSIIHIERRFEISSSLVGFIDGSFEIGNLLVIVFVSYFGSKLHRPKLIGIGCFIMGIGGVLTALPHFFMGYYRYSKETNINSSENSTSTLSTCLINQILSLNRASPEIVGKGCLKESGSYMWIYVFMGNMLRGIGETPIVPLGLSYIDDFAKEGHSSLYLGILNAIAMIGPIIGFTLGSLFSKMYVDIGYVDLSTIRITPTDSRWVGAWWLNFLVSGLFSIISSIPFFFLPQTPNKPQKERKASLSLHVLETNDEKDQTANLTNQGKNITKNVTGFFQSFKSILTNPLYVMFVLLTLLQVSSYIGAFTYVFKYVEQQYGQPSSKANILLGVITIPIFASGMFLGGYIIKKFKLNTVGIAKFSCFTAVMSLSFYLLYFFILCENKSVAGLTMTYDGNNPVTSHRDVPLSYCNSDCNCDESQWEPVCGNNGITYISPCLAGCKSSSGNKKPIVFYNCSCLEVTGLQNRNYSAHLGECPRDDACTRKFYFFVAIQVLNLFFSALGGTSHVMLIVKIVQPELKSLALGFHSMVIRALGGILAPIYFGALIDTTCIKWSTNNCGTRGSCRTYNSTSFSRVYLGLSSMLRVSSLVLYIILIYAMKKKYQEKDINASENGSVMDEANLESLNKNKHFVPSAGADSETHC

[2] = molecular target: T2, P-gp (MDR1/ABCB1) (Homo sapiens, UniProt P08183); experiment: Inhibition of transporters, P-gp (Caco-2 cells, digoxin); assay type: in vitro ADME
T2 construct: Caco-2 cells; endogenous in cells; host or cells: Caco-2 cells
T2 sequence (P08183 whole entry): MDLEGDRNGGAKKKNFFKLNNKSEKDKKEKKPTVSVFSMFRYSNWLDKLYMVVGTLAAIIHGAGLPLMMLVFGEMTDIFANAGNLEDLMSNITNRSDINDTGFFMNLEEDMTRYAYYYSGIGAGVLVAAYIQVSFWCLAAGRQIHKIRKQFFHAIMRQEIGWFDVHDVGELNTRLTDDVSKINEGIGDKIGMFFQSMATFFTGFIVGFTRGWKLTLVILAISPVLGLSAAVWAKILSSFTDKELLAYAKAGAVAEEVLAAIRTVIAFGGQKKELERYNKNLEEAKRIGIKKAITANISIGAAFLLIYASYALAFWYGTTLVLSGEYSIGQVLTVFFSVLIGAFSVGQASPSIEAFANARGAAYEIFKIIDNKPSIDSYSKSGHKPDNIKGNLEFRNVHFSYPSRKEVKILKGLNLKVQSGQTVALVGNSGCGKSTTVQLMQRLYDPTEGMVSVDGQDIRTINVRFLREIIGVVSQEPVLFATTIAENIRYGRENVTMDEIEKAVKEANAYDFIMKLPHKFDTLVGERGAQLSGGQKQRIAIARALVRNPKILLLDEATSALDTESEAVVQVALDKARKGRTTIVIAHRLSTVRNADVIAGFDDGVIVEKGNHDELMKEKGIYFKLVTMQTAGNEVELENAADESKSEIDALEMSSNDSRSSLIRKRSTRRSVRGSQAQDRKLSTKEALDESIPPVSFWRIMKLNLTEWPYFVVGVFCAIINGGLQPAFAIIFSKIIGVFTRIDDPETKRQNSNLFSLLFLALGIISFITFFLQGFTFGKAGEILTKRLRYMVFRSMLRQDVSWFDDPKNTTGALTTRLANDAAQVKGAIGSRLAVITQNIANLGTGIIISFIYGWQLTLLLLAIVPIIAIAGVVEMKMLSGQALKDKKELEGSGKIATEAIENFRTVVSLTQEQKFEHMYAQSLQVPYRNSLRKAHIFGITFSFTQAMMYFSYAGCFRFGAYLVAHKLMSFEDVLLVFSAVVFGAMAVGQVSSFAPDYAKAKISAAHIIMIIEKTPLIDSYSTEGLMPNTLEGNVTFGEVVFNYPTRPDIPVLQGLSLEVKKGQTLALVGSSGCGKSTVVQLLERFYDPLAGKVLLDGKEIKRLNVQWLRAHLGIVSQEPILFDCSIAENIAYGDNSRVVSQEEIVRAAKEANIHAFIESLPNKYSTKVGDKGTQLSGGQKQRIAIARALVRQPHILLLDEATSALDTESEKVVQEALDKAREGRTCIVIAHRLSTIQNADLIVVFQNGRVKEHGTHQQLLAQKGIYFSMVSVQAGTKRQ

[3] = Gravimetric Vapor Sorption (GVS); assay type: physicochemical
Description: The sample is hygroscopic.

[4] = system: STZ-induced mechanical allodynia; experiment: Diabetic neuropathy model of FIG. 10 (STZ, mechanical hypersensitivity); assay type: in vivo, mice; conditions: STZ on day −7
Experimental: Streptozotocin (STZ) destroys insulin-producing cells and generates a diabetic phenotype in mice. Animals were dosed with STZ on day −7. By day 0, animals are hyperglycemic and hyperalgesic (day 0 BL).

[5] = system: models of painful diabetic neuropathy; experiment: Models of painful diabetic neuropathy (overview); assay type: in vivo; conditions: upon repeated dosing
[6] = Chemical-based assays of peroxynitrite (PN) oxidation (luminol); assay type: biochemical
[7] = Stability in hepatocytes, human; assay type: in vitro ADME
[8] = Stability in hepatocytes, dog; assay type: in vitro ADME
[9] = Models of protein nitration; assay type: biochemical; conditions: physiological conditions (neutral pH)
[10] = system: lactoperoxidase oxidation (mediated by peroxide); experiment: Lactoperoxidase oxidation (mediated by peroxide); assay type: biochemical; conditions: physiological conditions (neutral pH)
[11] = molecular target: T3, OAT3 (Homo sapiens, UniProt Q8TCC7); experiment: Inhibition of transporters, OAT3 (HEK293 cells); assay type: in vitro ADME
T3 construct: expressed in transfected cells; host or cells: HEK293 cells
T3 sequence (Q8TCC7 1-542): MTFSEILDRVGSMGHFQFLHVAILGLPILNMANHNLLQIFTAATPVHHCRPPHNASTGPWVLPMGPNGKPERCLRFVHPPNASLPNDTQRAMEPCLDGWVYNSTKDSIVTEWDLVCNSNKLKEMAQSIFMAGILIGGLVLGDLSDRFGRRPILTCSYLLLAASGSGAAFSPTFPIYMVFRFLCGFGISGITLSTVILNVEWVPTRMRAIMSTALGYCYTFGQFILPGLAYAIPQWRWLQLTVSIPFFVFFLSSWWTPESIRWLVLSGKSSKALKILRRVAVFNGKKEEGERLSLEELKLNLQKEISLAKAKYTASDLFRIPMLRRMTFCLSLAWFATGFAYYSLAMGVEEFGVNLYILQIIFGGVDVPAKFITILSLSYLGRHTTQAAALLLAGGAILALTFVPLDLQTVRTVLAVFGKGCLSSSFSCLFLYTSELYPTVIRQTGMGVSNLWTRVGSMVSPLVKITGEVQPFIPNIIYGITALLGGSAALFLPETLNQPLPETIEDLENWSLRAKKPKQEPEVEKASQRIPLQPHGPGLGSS

[12] = molecular target: T4, BCRP (ABCG2) (Homo sapiens, UniProt Q9UNQ0); experiment: Inhibition of transporters, BCRP (MDCKII cells, prazosin); assay type: in vitro ADME
T4 construct: expressed in transfected cells; host or cells: MDCKII-BCRP cells (with MDCKII control cells)
T4 sequence (Q9UNQ0 1-655): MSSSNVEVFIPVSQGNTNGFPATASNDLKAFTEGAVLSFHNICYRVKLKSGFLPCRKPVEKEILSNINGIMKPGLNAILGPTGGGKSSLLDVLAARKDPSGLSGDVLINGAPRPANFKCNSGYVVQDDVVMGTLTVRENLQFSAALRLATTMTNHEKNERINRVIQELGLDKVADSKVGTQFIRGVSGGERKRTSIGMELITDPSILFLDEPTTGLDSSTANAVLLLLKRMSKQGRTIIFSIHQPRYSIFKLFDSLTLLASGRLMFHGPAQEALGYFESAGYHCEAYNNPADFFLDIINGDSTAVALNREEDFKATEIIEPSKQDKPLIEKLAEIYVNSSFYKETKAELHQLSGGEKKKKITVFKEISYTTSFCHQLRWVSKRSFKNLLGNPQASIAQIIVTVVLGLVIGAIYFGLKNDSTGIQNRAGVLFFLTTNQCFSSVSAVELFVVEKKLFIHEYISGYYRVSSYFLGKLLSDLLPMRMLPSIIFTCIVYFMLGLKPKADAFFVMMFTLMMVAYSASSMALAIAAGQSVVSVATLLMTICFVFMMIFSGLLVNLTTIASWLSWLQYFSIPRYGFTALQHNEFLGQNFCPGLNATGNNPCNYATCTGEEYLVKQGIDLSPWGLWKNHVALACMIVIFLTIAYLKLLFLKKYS

[13] = Stability of dose formulations for in vitro genetic toxicology assays; assay type: physicochemical; conditions: 0.001 to 50 mg/mL
Experimental: In addition, formulation analysis for in vitro genetic toxicology studies was performed using a validated HPLC/UV analytical method (2750-001-001 Dose Formulation Method No. 2) with linearity over a range of 0.001 to 50 mg/mL. Dose formulations for in vitro assays were stable at room temperature for up to 1 day and when stored frozen at −20° C. for up to 45 days.

[14] = Pharmacokinetics in dog; assay type: in vivo
Experimental: Similar conditions were used to validate a bioanalytical method in dog plasma also using 50 μL of plasma. In both assays, a deuterated (Compound 1-d4) internal standard was used.

[15] = Stability in hepatocytes, rat; assay type: in vitro ADME

CC1(C)SC(Nc2ccccc2O)=N[C@@H]1C(=O)O [Compound 1, (R)-2-(2-hydroxyphenylamino)-5,5-dimethyl-4,5-dihydrothiazole-4-carboxylic acid mono-hydrochloride]
inhibition of OATP1B1 (in words) [1]: does not inhibit | inhibition of P-gp (in words) [2]: does not inhibit | hygroscopicity [3]: hygroscopic | effect on STZ-induced mechanical allodynia [4]: blocks STZ-induced mechanical allodynia | effect on allodynia [5]: reverses allodynia | PN-mediated oxidation of small-molecule organic substrates such as luminol [6]: inhibits PN-mediated oxidation | stability in hepatocytes [7]: stable | stability in hepatocytes [8]: stable | removal of peroxynitrite [9]: catalytically remove peroxynitrite | removal of peroxynitrite [10]: catalytically remove peroxynitrite | inhibition of OAT3 (in words) [11]: weakly inhibits | inhibition of BCRP (in words) [12]: modestly inhibits | stability of dose formulations for in vitro assays, time stable ([13]; room temperature): up to 1 day | stability of dose formulations for in vitro assays, time stable ([13]; stored frozen at −20° C.): up to 45 days | bioavailability after oral administration [14]: bioavailable | stability in hepatocytes [15]: stable
